In the test the target is S1P1 receptor (Homo sapiens, UniProt P21453). Kind of test: 35S-GTPγS binding, membranes from CHO cells expressing S1P1. The test is classed as biochemical. The conditions noted are these: CHO cell membranes expressing S1P1. Here is the method:
Receptor binding assay: Membranes were prepared from CHO cells expressing S1P1 or S1P3 for use in ligand and 35S-GTPTS binding studies. Cells were suspended in 50 mM TRIS, pH 7.4, 2 mM EDTA, 250 mM Sucrose (buffer A) and 1× Complete protease inhibitor cocktail (Roche), and disrupted at 4° C. by nitrogen decompression using a cell disruption bomb (Parr Instrument). Following centrifugation at 1000 RPM for 10 min at 4° C., the supernatant was suspended in buffer A and centrifuged again at 19000 RPM for 60 min at 4° C. The pellet was then suspended in 10 mM HEPES, pH 7.4, 1 mM EDTA, 250 mM Sucrose (Buffer B), and 1× Complete EDTA-free protease inhibitor cocktail and homogenized using a potter. Membranes were flash frozen in liquid nitrogen and stored at −80° C. [33P]sphingosine 1-phosphate (3000 Ci/mmol; American Radiolabeled Chemicals, Inc.) was added to test compounds in DMSO. Membranes and WGA SPA beads (GE Healthcare) were added to give a final volume of 100 μl in 96-well plates with assay concentrations of […] [33P]sphingosine 1-phosphate (respectively for S1P1 or S1P3), 50 mM HEPES, pH 7.5, 5 mM MgCl2, 100 mM NaCl, 0.4% fatty acid-free BSA, 1-5 μg/well of proteins and 100 μg/well of WGA SPA beads. Binding was performed for 60 min at room temperature on a shaker and bound radioactivity was measured on a PerkinElmer 1450 MicroBeta counter. Specific binding was calculated by subtracting remaining radioactivity in the presence of 1000-fold excess of unlabeled S1P. Binding data were analyzed using the GraphPad Prism program.
Measurements of ^35S-GTPγS Binding: Membranes (1 to 10 μg protein) prepared as described above, were incubated in 96-well Scintiplates (PerkinElmer) with test compounds diluted in DMSO, in 180 μl of 20 mM HEPES, pH 7.4, 10 mM MgCl2, 2 μg/well Saponin, 0.2% fatty acid free BSA (Assay buffer), 140 mM NaCl and 1.7 μM GDP. The assay was initiated with the addition of 20 μl of 1.5 nM [35S]-GTPγS (1100 Ci/mmol; GE Healthcare) in assay buffer. After 60 min incubation at 30° C. on a shaker, plates were centrifuged for 10 min at 2000 RPM. Supernatant was discarded and membrane bound radioactivity was measured on a PerkinElmer 1450 MicroBeta counter. Triplicate samples were averaged and expressed as response relative to S1P activation in absence of compound (n=2).

The results in this text go back to patent publication US8202856B2 (Merck Serono SA, priority 2007, dated 2012).

S1P1 receptor, sequence (P21453 whole entry): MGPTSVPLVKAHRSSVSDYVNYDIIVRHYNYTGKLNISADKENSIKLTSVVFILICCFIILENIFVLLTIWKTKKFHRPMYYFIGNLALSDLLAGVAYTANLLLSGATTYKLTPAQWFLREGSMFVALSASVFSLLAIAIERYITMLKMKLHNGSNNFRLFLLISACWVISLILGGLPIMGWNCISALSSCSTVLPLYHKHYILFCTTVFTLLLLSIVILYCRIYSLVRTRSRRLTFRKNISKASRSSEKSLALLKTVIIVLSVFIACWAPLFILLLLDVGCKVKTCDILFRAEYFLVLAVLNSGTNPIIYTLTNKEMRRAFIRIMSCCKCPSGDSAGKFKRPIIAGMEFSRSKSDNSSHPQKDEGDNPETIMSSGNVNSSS

On to `NC(=O)c1ccc(-c2noc(-c3nnn(-c4ccccc4F)c3-c3ccncc3)n2)cc1` [Example 73, 4-{5-[1-(2-fluorophenyl)-5-pyridin-4-yl-1H-1,2,3-triazol-4-yl]-1,2,4-oxadiazol-3-yl}benzamide], for which the EC50 (as a rule, the concentration needed to bring the measured effect to its halfway point) worked out at 49 nM.
The figure for `COCc1c(-c2nc(-c3ccc(S(N)(=O)=O)cc3)no2)nnn1-c1ccccc1F` [Example 76, 4-{5-[1-(2-fluorophenyl)-5-(methoxymethyl)-1H-1,2,3-triazol-4-yl]-1,2,4-oxadiazol-3-yl}benzenesulfonamide] is 583 nM; for `O=C(O)[C@H]1CC[C@@H](NCc2ccc(-c3noc(-c4nnn(-c5ccccc5F)c4-c4ccncc4)n3)cc2)CC1` [Example 163] it is 80 nM; for `Cc1c(-c2nc(-c3cc(F)ccc3F)no2)nnn1-c1ccccc1Br` [Example 3, 5-[1-(2-Bromophenyl)-5-methyl-1H-1,2,3-triazole-4-yl]-3-(2,5-difluorophenyl)-1,2,4-oxadiazole] it is 2720 nM.
For `Fc1ccccc1-n1nnc(-c2nc(-c3ccc(CN4CCOCC4)cc3)no2)c1-c1ccncc1` [Example 98, 4-(4-{5-[1-(2-fluorophenyl)-5-pyridin-4-yl-1H-1,2,3-triazol-4-yl]-1,2,4-oxadiazol-3-yl}benzyl)morpholine] the value was 439 nM; for `Fc1ccccc1-n1nnc(-c2nc(-c3ccncc3)no2)c1C1CCCC1` [Example 72, 4-{5-[5-cyclopentyl-1-(2-fluorophenyl)-1H-1,2,3-triazol-4-yl]-1,2,4-oxadiazol-3-yl}pyridine], 980 nM.
For `Cc1c(-c2nc(-c3cc(F)ccc3F)no2)nnn1-c1ccccc1F` [Example 2, 3-[2,5-Difluorophenyl)-5-[1-(2-fluorophenyl)-5-methyl-1H-1,2,3-triazole-4-yl]-1,2,4-oxadiazole] the value was 1130 nM.
`COCc1c(-c2nc(-c3ccc(Cn4ccnc4)cc3)no2)nnn1-c1ccccc1F` [Example 175, 5-[1-(2-fluorophenyl)-5-(methoxymethyl)-1H-1,2,3-triazol-4-yl]-3-[4-(1H-imidazol-1-ylmethyl)phenyl]-1,2,4-oxadiazole] gave an EC50 of 67 nM.
The molecule `COc1ccc(-c2noc(-c3nnn(-c4ccccc4F)c3-c3ccncc3)n2)cn1` [Example 126, 5-{5-[1-(2-fluorophenyl)-5-pyridin-4-yl-1H-1,2,3-triazol-4-yl]-1,2,4-oxadiazol-3-yl}-2-methoxypyridine] displayed an EC50 of 226 nM.
For `COCc1c(-c2nc(-c3ccc(N)nc3)no2)nnn1-c1ccccc1F` [Example 123, 5-{5-[1-(2-fluorophenyl)-5-(methoxymethyl)-1H-1,2,3-triazol-4-yl]-1,2,4-oxadiazol-3-yl}pyridin-2-amine] the value was 475 nM.
For `Fc1ccccc1-n1nnc(-c2nc(-c3cccnc3)no2)c1-c1ccncc1` [Example 42, 3-{5-[1-(2-fluorophenyl)-5-pyridin-4-yl-1H-1,2,3-triazol-4-yl]-1,2,4-oxadiazol-3-yl}pyridine], it took 42 nM to reach a half-maximal effect (EC50).
The figure for `Fc1ccccc1-n1nnc(-c2nc(-c3cccnc3)no2)c1Cc1ccccc1` [Example 75, 3-{5-[5-benzyl-1-(2-fluorophenyl)-1H-1,2,3-triazol-4-yl]-1,2,4-oxadiazol-3-yl}pyridine] is 665 nM.
The figure for `Fc1ccccc1-n1nnc(-c2nc(-c3ccccc3)no2)c1-c1ccncc1` [Example 95, 4-[1-(2-fluorophenyl)-4-(3-phenyl-1,2,4-oxadiazol-5-yl)-1H-1,2,3-triazol-5-yl]pyridine] is 13 nM.
The figure for `COc1cccc(-c2noc(-c3nnn(-c4ccccc4F)c3-c3ccccn3)n2)c1` [Example 70, 2-{1-(2-fluorophenyl)-4-[3-(3-methoxyphenyl)-1,2,4-oxadiazol-5-yl]-1H-1,2,3-triazol-5-yl}pyridine] is 284 nM.
Consider `Cc1cc(CCC(=O)O)ccc1-c1noc(-c2nnn(-c3ccccc3F)c2-c2ccccc2)n1` [Example 30, 3-(4-{5-[1-(2-Fluorophenyl)-5-phenyl-1H-1,2,3-triazole-4-yl]-1,2,4-oxadiazole-3-yl}-3-methylphenyl)propanoic acid], for which the EC50 was found to be 709 nM.
The figure for `COCCc1c(-c2nc(-c3cc(F)ccc3F)no2)nnn1-c1ccccc1F` [Example 44, 3-(2,5-difluorophenyl)-5-[1-(2-fluorophenyl)-5-(2-methoxyethyl)-1H-1,2,3-triazol-4-yl]-1,2,4-oxadiazole] is 53 nM; for `Fc1ccccc1-n1nnc(-c2nc(-c3ccc(CN4CC[C@@H](F)C4)cc3)no2)c1-c1ccncc1` [Example 160, 4-{1-(2-fluorophenyl)-4-[3-(4-{[(3R)-3-fluoropyrrolidin-1-yl]methyl}phenyl)-1,2,4-oxadiazol-5-yl]-1H-1,2,3-triazol-5-yl}pyridine] it is 71 nM.
For `Fc1ccccc1-n1nnc(-c2nc(-c3ccc4[nH]cnc4c3)no2)c1-c1ccncc1` [Example 155, 5-{5-[1-(2-fluorophenyl)-5-pyridin-4-yl-1H-1,2,3-triazol-4-yl]-1,2,4-oxadiazol-3-yl}-1H-benzimidazole] the value was 251 nM; for `Nc1cc(-c2noc(-c3nnn(-c4ccccc4F)c3-c3ccncc3)n2)ccn1` [Example 152, 4-{5-[1-(2-fluorophenyl)-5-pyridin-4-yl-1H-1,2,3-triazol-4-yl]-1,2,4-oxadiazol-3-yl}pyridin-2-amine], 78 nM; for `Fc1ccccc1-n1nnc(-c2nc(-c3ccc(CN4CCC(F)(F)CC4)cc3)no2)c1-c1ccncc1` [Example 161], 545 nM.
Consider `OCCNCc1ccc(-c2noc(-c3nnn(-c4ccccc4F)c3-c3ccncc3)n2)cc1` [Example 136, 2-[(4-{5-[1-(2-fluorophenyl)-5-pyridin-4-yl-1H-1,2,3-triazol-4-yl]-1,2,4-oxadiazol-3-yl}benzyl)amino]ethanol], for which the midpoint of the response, the EC50, lay at 31 nM.
In turn, `Fc1ccc(-c2noc(-c3nnn(-c4ccccc4F)c3-c3ccncc3)n2)cc1` [Example 96, 4-{1-(2-fluorophenyl)-4-[3-(4-fluorophenyl)-1,2,4-oxadiazol-5-yl]-1H-1,2,3-triazol-5-yl}pyridine] showed an EC50 of 138 nM.
The figure for `Fc1ccccc1-n1nnc(-c2nc(-c3ccc(C4OCCO4)cc3)no2)c1-c1ccncc1` [Example 110, 4-[4-{3-[4-(1,3-dioxolan-2-yl)phenyl]-1,2,4-oxadiazol-5-yl}-1-(2-fluorophenyl)-1H-1,2,3-triazol-5-yl]pyridine] is 136 nM; for `Fc1ccccc1-c1noc(-c2nnn(-c3ccccc3F)c2C2CC2)n1` [Example 85, 5-[5-cyclopropyl-1-(2-fluorophenyl)-1H-1,2,3-triazol-4-yl]-3-(2-fluorophenyl)-1,2,4-oxadiazole] it is 451 nM.
In turn, `COCCNCc1cccc(-c2noc(-c3nnn(-c4ccccc4F)c3-c3ccncc3)n2)c1` [Example 147, N-(3-{5-[1-(2-fluorophenyl)-5-pyridin-4-yl-1H-1,2,3-triazol-4-yl]-1,2,4-oxadiazol-3-yl}benzyl)-2-methoxyethanamine] gave an EC50 of 577 nM.
Consider `Fc1ccccc1-c1noc(-c2nnn(-c3ccccc3F)c2Cc2ccccc2)n1` [Example 58, 5-[5-benzyl-1-(2-fluorophenyl)-1H-1,2,3-triazol-4-yl]-3-(2-fluorophenyl)-1,2,4-oxadiazole], for which the EC50 was 1160 nM.
For `Fc1ccccc1-n1nnc(-c2nc(-c3ccc(CN4CCC4)cc3)no2)c1-c1ccncc1` [Example 138, 4-[4-{3-[4-(azetidin-1-ylmethyl)phenyl]-1,2,4-oxadiazol-5-yl}-1-(2-fluorophenyl)-1H-1,2,3-triazol-5-yl]pyridine] the value was 21 nM.
For the molecule `OC1CN(Cc2ccc(-c3noc(-c4nnn(-c5ccccc5F)c4-c4ccncc4)n3)cc2)C1` [Example 135, 1-(4-{5-[1-(2-fluorophenyl)-5-pyridin-4-yl-1H-1,2,3-triazol-4-yl]-1,2,4-oxadiazol-3-yl}benzyl)azetidin-3-ol], it took 18 nM to reach a half-maximal effect (EC50).
For `CC(=O)NC1CCN(Cc2ccc(-c3noc(-c4nnn(-c5ccccc5F)c4-c4ccncc4)n3)cc2)CC1` [Example 137, N-[1-(4-{5-[1-(2-fluorophenyl)-5-pyridin-4-yl-1H-1,2,3-triazol-4-yl]-1,2,4-oxadiazol-3-yl}benzyl)piperidin-4-yl]acetamide] the value was 223 nM; for `Fc1ccccc1-n1nnc(-c2nc(-c3ccccn3)no2)c1-c1ccncc1` [Example 45, 2-{5-[1-(2-fluorophenyl)-5-pyridin-4-yl-1H-1,2,3-triazol-4-yl]-1,2,4-oxadiazol-3-yl}pyridine], 2170 nM.
